Values quoted from earlier work in patent publication US10995060B2, “Amorphous Trisodium Sacubitril Valsartan and process for its preparation” (priority 2016, dated 2021).
Counter-ions that a name gives are not always drawn. Like-named read-outs stand apart in the source and are kept apart here. One block for each compound: values may come before it.

Tests used:
[1] = for Crystalline state / polymorph stability after exposure: 80° C at 0% RH and 75% RH for 3 days; for Result after loading of the sample at 80° C./0% RH / Result after loading of the sample at 80° C./75% RH: solid form by X-ray powder analysis, 3 days
[2] = crystal powder of Example 11 of WO 200206253

Compound: CCOC(=O)[C@H](C)C[C@@H](Cc1ccc(-c2ccccc2)cc1)NC(=O)CCC(=O)O [calcium salt of sacubitril]
Crystalline state / polymorph stability after exposure [1]: did not change
Result after loading of the sample at 80° C./0% RH [1]: Crystalline sample(form I)I
Result after loading of the sample at 80° C./75% RH [1]: Crystalline sample(form I)I

Compound: CCOC(=O)[C@H](C)C[C@@H](Cc1ccc(-c2ccccc2)cc1)NC(=O)CCC(=O)[O-].[Na+] [sodium salt of sacubitril]
Crystalline state / polymorph stability after exposure [1]: high rate of polymorph instability
Result after loading of the sample at 80° C./0% RH [1]: Semicrystalline phase
Result after loading of the sample at 80° C./75% RH [1]: Amorphous sample
Result after loading of the sample at 80° C./75% RH ([1]; listed as sodium salt of Sacubitril): completely amorphous

Hygroscopicity [2]: slightly hygroscopic
Compound: Hydrate of valsartan disodium salt (2.4 ě 1.0 mole H2O)
